According to patent publication US6541208B1, “Diagnostic method for distinguishing HIV-associated dementia from other forms of dementia” (University of Maryland Biotechnology Institute, priority 1998, dated 2003):

Assays:
[1] = system: astrocytic MCP-1 expression; assay: Northern blot analysis of MCP-1 RNA in stimulated human astrocytes; format: cell-based
From the text: FIG. 1A—Total RNA was extracted from T lymphoblastoid HUT 78 cells (ATCC), and from variously treated human astrocytes. Ten μg per lane were then run on a 1% agarose-6% formaldehyde gel. Following transfer of RNA to nitrocellulose, the blot was probed with the full-length cDNA for MCP-1, and subsequently, RANTES. RNA from untreated astrocytes was run in lanes 2 and 4. […] Astrocytic expression of RANTES was not detected.
FIG. 1B—Similar experience except that RNA from HUT 78 cells (lane 1) was compared to RNA from astrocytes that were unstimulated (lane 2) or stimulated for 2 hr with 100 nM Tat (lane 3), 25 μM TPCK followed by 100 nM Tat (lane 4) or 25 μM TPCK (lane 5).
Brain tissue from 12-14 wk human fetuses was obtained in accordance with NIH guidelines. The tissue was mechanically disrupted by aspiration through a 19-gauge needle, washed in Eagle's minimal essential medium (EMEM) and then distributed into tissue culture flasks. Cells were maintained in EMEM containing 10% fetal bovine serum, 2 mM L-glutamine and 5 μg/ml gentamicin. Several days later, flasks were placed into an orbital incubator shaker at 37° C. and 210 rpm for 6 hr. Non-adherent cells were removed. A portion of the adherent cells were later stained with an antibody to glial fibrallary acidic protein and only those cultures which were >95% positive were used. […]

MCP-1 activity = conditions: point mutations Thr-10 to Arg and Tyr-13 to Ile; cited from earlier work

Question: With Cc1ccc(S(=O)(=O)N[C@@H](Cc2ccccc2)C(=O)CCl)cc1 [TPCK, n-tosli-L-phenylalanine chloromethyl ketone, reference compound] as the molecule, how does the “effect on Tat-induced increase in MCP-1 encoding RNA” value ([1]; 25 μM TPCK followed by 100 nM Tat, 2 hr) read?
Answer: The value was “inhibited”.

Question: With “interleukin-1β: cytokine used at 5 ng/ml to stimulate astrocytes [reference compound]” as the molecule, how does the “astrocytic MCP-1 expression (MCP-1 encoding RNA)” value ([1]; 5 ng/ml interleukin-1β, 4 hr stimulation, human astrocytes) read?
Answer: The value was “increase in astrocytic MCP-1 expression”.

Question: With “MCP-1 protein with point mutations of Thr-10 to Arg and Tyr-13 to Ile: mutant MCP-1 protein from Beal et al., contemplated as MCP-1 antagonist” as the molecule, how does the “MCP-1 activity of the mutant protein” value (MCP-1 activity) read?
Answer: The value was “greatly reduced MCP-1 activity”.
